Literature values in US20040224039A1, “Compositions and methods for the treatment of diseases and disorder associated with oxidative damage” (priority 2003, published 2004).

Details: following the administration of 500 mg aspirin

- plasma level: 130 µM
SMILES: CC(=O)Oc1ccccc1C(=O)O [aspirin, acetylsalicylic acid]
